Counter-ions that a name gives are not always drawn.

T1 sequence (P56726 33-793): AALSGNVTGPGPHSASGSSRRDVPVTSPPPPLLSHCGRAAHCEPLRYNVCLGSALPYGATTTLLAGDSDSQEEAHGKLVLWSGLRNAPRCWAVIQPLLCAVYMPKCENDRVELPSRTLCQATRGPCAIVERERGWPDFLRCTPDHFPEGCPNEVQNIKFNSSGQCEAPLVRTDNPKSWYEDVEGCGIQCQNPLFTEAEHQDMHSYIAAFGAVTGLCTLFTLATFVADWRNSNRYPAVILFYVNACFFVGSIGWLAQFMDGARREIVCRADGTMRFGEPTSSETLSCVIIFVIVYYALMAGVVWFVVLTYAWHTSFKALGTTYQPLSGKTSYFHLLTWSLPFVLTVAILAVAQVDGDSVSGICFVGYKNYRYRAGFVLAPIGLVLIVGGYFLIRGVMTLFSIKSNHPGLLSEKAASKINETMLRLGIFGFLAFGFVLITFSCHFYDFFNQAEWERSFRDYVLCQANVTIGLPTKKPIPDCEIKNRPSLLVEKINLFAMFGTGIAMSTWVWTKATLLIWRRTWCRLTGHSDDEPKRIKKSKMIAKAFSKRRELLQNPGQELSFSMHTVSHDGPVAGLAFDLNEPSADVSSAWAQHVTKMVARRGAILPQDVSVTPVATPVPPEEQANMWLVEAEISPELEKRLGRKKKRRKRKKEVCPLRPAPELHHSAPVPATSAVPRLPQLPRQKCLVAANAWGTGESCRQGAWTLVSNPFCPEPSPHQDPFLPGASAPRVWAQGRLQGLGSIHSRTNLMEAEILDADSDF

The first test has as its target T1, SMO (Mus musculus, UniProt P56726).
T1 construct: endogenous in cells; host or cells: C3H10T1/2 (ATCC #CCL-226)
The experiment in a line: Smoothened (SMO)/Sonic Hedgehog (SHh) Transient Transcriptional Activation Assay (Gli-luciferase reporter in C3H10T1/2 cells). Format: cell-based, murine. The conditions noted are these: 2 uM test compound, SHh 250 ng/ml, 20 hrs. Put shortly:
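C3H10T1/2 cells transiently transfected with a 10× murine Gli-responsive firefly luciferase reporter plus pEGFP, serum-starved 20 h in 0.5% calf serum, then treated with compounds (2 uM–2 nM final) and 250 ng/ml recombinant human SHh for 20 h at 37 °C. Read-out: Dual-Glo luminescence.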
In the case of “N-(3-(1-Methyl-6-(morpholinomethyl)-1H-benzo[d]imidazol-2-yl]cyclohexyl)-2,3-dihydrobenzo[b][1,4]dioxine-6-carboxamide and N-(3-(1-Methyl-5-(morpholinomethyl)-1H-benzo[d]imidazol-2-yl]cyclohexyl)-2,3-dihydrobenzo[b][1,4]dioxine-6-carboxamide [Example 37]”, the “SMO % inhibition at 2 uM” value came to 88%.

Still in this test, the particulars now being: 2 μM test compound, SHh 250 ng/ml, 20 hrs.
In the case of `Cl.O=C(NC12CCCC(c3nc4cc(C(F)(F)F)ccc4[nH]3)(C1)C2)c1ccc2c(c1)OCCO2` [Example 258, N-{5-[5-(trifluoromethyl)-1H-benzimidazol-2-yl]bicyclo[3.1.1]hept-1-yl}-2,3-dihydro-1,4-benzodioxine-6-carboxamide HCL], the “SMO CELL % INHIBITION @ 2 μM” value came to 99.22%.

Staying with this test, now noted: 2 μM test compound, SHh 250 ng/ml, 20 hrs, HCl, 2 µM.
In the case of `N#Cc1ccc(NC(=O)NC23CCCC(c4nc5cc(C(F)(F)F)ccc5[nH]4)(C2)C3)cc1` [Example 262, 1-(4-cyanophenyl)-3-{5-[5-(trifluoromethyl)-1H-benzimidazol-2-yl]bicyclo[3.1.1]hept-1-yl}urea HCl], the “SMO CELL % INHIBITION @ 2 μM” value worked out at 89%.

The same test, now with this note: C3H 10T1/2, 2 uM test compound, SHh 250 ng/ml, 20 hrs, read-out: SMO % inhibition at 2 uM.
`Cn1c([C@@H]2CCC[C@H](NC(=O)c3ccc4c(c3)OCCO4)C2)nc2ccccc21` [Example 21, N-((1S,3R)-3-(1-Methyl-1H-benzo[d]imidazol-2-yl)cyclohexyl)-2,3-dihydrobenzo[b](1,4]dioxine-6-carboxamide]: the inhibition at 2 µM came out at 71%.

With `COCCNCc1ccc2nc([C@H]3CCC[C@@H](NC(=O)c4ccc5c(c4)OCCO5)C3)[nH]c2c1` [Example 43], the inhibition at 2 µM was 99%.

Take `COCCNc1ccc(C(=O)N[C@@H]2CCC[C@H](c3nc4ccccc4[nH]3)C2)cn1` [Example 41, N-((1R,3S)-3-(1H-Benzo-[d]imidazol-2-yl)cyclohexyl)-6-(2-methoxyethylamino)nicotinamide]: the inhibition at 2 µM stood at 87%.

Take `CN1C(=O)COc2ccc(C(=O)N[C@@H]3CCC[C@H](c4nc5ccccc5[nH]4)C3)cc21` [Example 45, N-((1R,3S)-3-(1H-Benzo[d]midazol-2-yl)cyclohexyl)-4-methyl-3-oxo-3,4-dihydro-2H-benzo[b][1,4]oxazine-6-carboxamide]: the inhibition at 2 µM stood at 108%.

Still in this test, the particulars now being: C3H 10T1/2, 2 μM test compound, SHh 250 ng/ml, 20 hrs, read-out: SMO CELL % INHIBITION @ 2 μM.
For the compound `O=C(N[C@@H]1CCC[C@H](c2nc3ccccc3[nH]2)C1)c1n[nH]c2c1CCCCCC2` [Example 212, N-[(1R,3S)-3-(1H-benzimidazol-2-yl)cyclohexyl]-4,5,6,7,8,9-hexahydro-1H-cycloocta[c] pyrazole-3-carboxamide triflouroacetate], the inhibition at 2 µM worked out at 71%.

For `O=C(NC1CCCC(c2nc3ccccc3[nH]2)C1)c1cc(-c2ccncc2)n[nH]1` (centres unmarked) [Example 135, N-[3-(1H-benzimidazol-2-yl)cyclohexyl]-3-pyridin-4-yl-1H-pyrazole-5-carboxamide triflouroacetate], the inhibition at 2 µM amounted to 100%.

For the compound `O=C(N[C@@H]1CCC[C@H](c2nc3cc(Br)ccc3[nH]2)C1)c1ccc2c(c1)OCCO2` [Example 149, N-[(1R,3S)-3-(5-bromo-1H-benzimidazol-2-yl)cyclohexyl]-2,3-dihydro-1,4-benzodioxine-6-carboxamide HCl], the inhibition at 2 µM came out at 103%.

Take `O=C(NC1CCCC(c2nc3ccccc3[nH]2)C1)C1CCCO1` (centres unmarked) [Example 121, N-[3-(1H-benzimidazol-2-yl)cyclohexyl] tetrahydrofuran-2-carboxamide triflouroacetate]: the inhibition at 2 µM came to 94%.

With `O=C(N[C@@H]1CCC[C@H](c2nc3ccccc3[nH]2)C1)c1ccc2c(c1)CCO2` [Example 198, N-[(1R,3S)-3-(1H-benzimidazol-2-yl)cyclohexyl]-2,3-dihydro-1-benzofuran-5-carboxamide triflouroacetate], the inhibition at 2 µM is 85%.

As to `COc1ccc(C2(C(=O)NC3CCCC(c4nc5ccccc5[nH]4)C3)CC2)cc1` (centres unmarked) [Example 132, N-[3-(1H-benzimidazol-2-yl)cyclohexyl]-1-(4-methoxyphenyl) cyclopropane-carboxamide triflouroacetate], the inhibition at 2 µM came to 78%.

For the compound `CCCN1CCNC(=O)C1CC(=O)NC1CCCC(c2nc3ccccc3[nH]2)C1` (centres unmarked) [Example 110, N-[3-(1H-benzimidazol-2-yl)cyclohexyl]-2-(3-oxo-1-propylpiperazin-2-yl)acetamide triflouroacetate], the inhibition at 2 µM worked out at 86%.

As for `O=C(NC1CCCC(c2nc3cc(F)c(F)cc3[nH]2)C1)c1ccc2c(c1)OCCO2` (centres unmarked) [Example 83, N-[3-(5,6-difluoro-1H-benzimidazol-2-yl)cyclohexyl]-2,3-dihydro-1,4-benzodioxine-6-carboxamide HCl], the inhibition at 2 µM amounted to 103%.

As to `COc1ccc2[nH]c([C@H]3CCC[C@H](NC(=O)c4ccc5c(c4)OCCO5)C3)nc2c1` [Example 254, N-(3-(5-methoxy-1H-benzo[d]imidaz-ol-2-yl)cyclohexyl)-2,3-dihydrobenzo[b] [1,4]dioxine-6-carboxamide HCl], the inhibition at 2 µM was 91%.

For `CN(C)S(=O)(=O)CC(=O)NC1CCCC(c2nc3ccccc3[nH]2)C1` (centres unmarked) [Example 162, N-[3-(1H-benzimidazol-2-yl)cyclohexyl]-2-{(dimethylamino)-sulfonyl]-acetamide triflouroacetate], the inhibition at 2 µM is 71%.

For `Cn1c(C2CCCC(NC(=O)c3ccc4c(c3)OCCO4)C2)nc2cc(CN)ccc21` (centres unmarked) [Example 73, N-{3-[5-(aminomethyl)-1-methyl-1H-benzimidazol-2-yl]cyclohexyl}-2,3-dihydro-1,4-benzodioxine-6-carboxamide HCl], the inhibition at 2 µM stood at 104%.

As for `COc1cc(C(=O)N[C@@H]2CCC[C@H](c3nc4ccccc4[nH]3)C2)cc2c1OCO2` [Example 222, N-[(1R,3S)-3-(1H-benzimidazol-2-yl)cyclohexyl]-7-methoxy-1,3-benzodioxole-5-carboxamide triflouroacetate], the inhibition at 2 µM turned out to be 52%.

Turning to `COc1ccc2oc(C(=O)N[C@@H]3CCC[C@H](c4nc5ccccc5[nH]4)C3)cc2c1` [Example 184, N-[(1R,3S)-3-(1H-benzimidazol-2-yl)cyclohexyl]-5-methoxy-1-benzofuran-2-carboxamide triflouroacetate], the inhibition at 2 µM amounted to 61%.

For `O=C1COc2ccc(C(=O)N[C@@H]3CCC[C@H](c4nc5cc(Cl)ccc5[nH]4)C3)cc2N1` [Example 299, N-[(1R,3S)-3-(5-chloro-1H-benzimidazol-2-yl)cyclohexyl]-3-oxo-3,4-dihydro-2H-1,4-benzoxazine-6-carboxamide (+)-tartrate], the inhibition at 2 µM stood at 105%.

Turning to `CC(=O)c1ccc(OCC(=O)NC2CCCC(c3nc4ccccc4[nH]3)C2)cc1` (centres unmarked) [Example 157, 2-(4-acetylphenoxy)-N-[3-(1H-benzimidazol-2-yl)cyclohexyl] acetamide triflouroacetate], the inhibition at 2 µM is 52%.

For `O=C(N[C@@H]1CCC[C@H](c2nc3ccccc3[nH]2)C1)C1COc2ccccc2C1` (stereo partly drawn) [Example 195, N-[(1R,3S)-3-(1H-benzimidazol-2-yl)cyclohexyl] chromane-3-carboxamide triflouroacetate], the inhibition at 2 µM turned out to be 81%.

In the case of `Cc1cc(C)n(CCC(=O)NC2CCCC(c3nc4ccccc4[nH]3)C2)n1` (centres unmarked) [Example 120, N-[3-(1H-benzimidazol-2-yl)cyclohexyl]-3-(3,5-dimethyl-1H-pyrazol-1-yl)propanamide triflouroacetate], the inhibition at 2 µM came to 70%.

Take `Cc1ccc2[nH]c(C(=O)N[C@@H]3CCC[C@H](c4nc5ccccc5[nH]4)C3)c(C)c2c1` [Example 191, N-[(1R,3S)-3-(1H-benzimidazol-2-yl)cyclohexyl]-3,5-dimethyl-1H-indole-2-carboxamide triflouroacetate]: the inhibition at 2 µM is 107%.

In the case of `O=C(NC1CCCC(c2nc3ccccc3[nH]2)C1)c1ccc(-n2ccnc2)cc1` (centres unmarked) [Example 90, N-[3-(1H-benzimidazol-2-yl)cyclohexyl]-4-(1H-imidazol-1-yl)benzamide triflouroacetate], the inhibition at 2 µM came to 100%.

Consider `COc1cc(OC)cc(C(=O)NC2CCCC(c3nc4cc(C(F)(F)F)ccc4[nH]3)C2)c1` (centres unmarked) [Example 74, 3,5-dimethoxy-N-{3-[6-(trifluoromethyl)-1H-benzimidazol-2-yl)cyclohexyl}-benzamide HCl], for which the inhibition at 2 µM is 105%.

Take `O=C(N[C@@H]1CCC[C@H](c2nc3ccccc3[nH]2)C1)c1ccc2c(c1)OCCO2` [Example 63, N-[(1R,3S)-3-(1H-benzimidazol-2-yl)cyclohexyl]-2,3-dihydro-1,4-benzodioxine-6-carboxamide HCl]: the inhibition at 2 µM was determined as 108%.

Regarding `Cn1c([C@@H]2CCC[C@@H](NC(=O)c3ccc4c(c3)OCCO4)C2)nc2ccccc21` [Example 240, N-([1R,3R]-3-(1-methyl-1H-benzo[d]imidaz-ol-2-yl)cyclohexyl)-2,3-dihydrobenzo[b] [1,4]dioxine-6-carboxamide HCl], the inhibition at 2 µM turned out to be 60%.

Take `O=C(NC1CCCC(c2nc3ccc(Cl)cc3[nH]2)C1)c1ccc2c(c1)OCCO2` (centres unmarked) [Example 85, N-[3-(6-chloro-1H-benzimidazol-2-yl)cyclohexyl]-2,3-dihydro-1,4-benzodioxine-6-carboxamide HCl]: the inhibition at 2 µM worked out at 103%.

Consider `COc1ccc2[nH]c([C@@H]3CCC[C@H](NC(=O)c4ccc5c(c4)OCCO5)C3)nc2c1` [Example 239, N-((1S,3R)-3-(5-methoxy-1H-benzo[d]imidaz-ol-2-yl)cyclohexyl)-2,3-dihydrobenzo[b] [1,4]dioxine-6-carboxamide HCl], for which the inhibition at 2 µM was found to be 23%.

Turning to `O=C(N[C@@H]1CCC[C@H](c2nc3ccccc3[nH]2)C1)c1ccc2cc[nH]c2c1` [Example 203, N-[(1R,3S)-3-(1H-benzimidazol-2-yl)cyclohexyl]-1H-indole-6-carboxamide triflouroacetate], the inhibition at 2 µM was found to be 109%.

The record behind these values is US20100029615A1, “BENZIMIDAZOLE DERIVATIVES” (priority 2006, published 2010).
